In PMC8523172, “Structure of mycobacterial CIII2CIV2 respiratory supercomplex bound to the tuberculosis drug candidate telacebec (Q203)” (eLife, 2021):

How the values were obtained:
Type in all cases: biochemical
[1] = biological target: T1, CIII2CIV2 supercomplex, subunit QcrB (QP site) (Mycolicibacterium smegmatis, UniProt I7FGS8+I7GD61); assay: Clark-type electrode oxygen consumption, purified enzyme
T1 construct: purified CIII2CIV2 supercomplex with 3×FLAG tag at the C terminus of QcrB; with QcrA (Rieske subunit) within CIII2CIV2

[2] = biological target: T1, CIII2CIV2 supercomplex, subunit QcrB (QP site); assay: Clark-type electrode oxygen consumption, purified enzyme turnover ([…] substrate)
[3] = biological target: T1, CIII2CIV2 supercomplex, subunit QcrB (QP site); assay: oxygen consumption (DMWH2:O2 oxidoreductase) inhibition of purified enzyme

Cc1cc(O)c2ccccc2c1O [menadiol, 2-methyl-[1,4]naphthohydroquinone]
Clark-type electrode oxygen consumption, purified enzyme [1]: CIII2CIV2 activity is greater with DMWH2 green curve, than with menadiol brown curve

Cc1c(C)c(O)c2ccccc2c1O [DMWH2, 2,3-dimethyl-[1,4]naphthohydroquinone]
Clark-type electrode oxygen consumption, purified enzyme turnover (100 μM substr) [2]: 91 ± 4 e^-/s

CCc1nc2ccc(Cl)cn2c1C(=O)NCc1ccc(N2CCC(c3ccc(OC(F)(F)F)cc3)CC2)cc1 [telacebec]
IC50 [3]: 53 ± 19 nM
